This is an account of results in patent US9556237B2 (priority 2012, dated 2017).

In data set [1] the test system is Vero E6 cells.
Data set [2] has as its system RVFV-MP12. Format: cell-based, Rift Valley fever virus.
Data set [3] relates to EBOV-eGFP. Type of data set: cell-based, Zaire ebolavirus.

As for `CSCC[C@H](NC(=O)[C@H](CC(C)C)NC(=O)CNC(=O)[C@H](CO)NC(=O)[C@H](Cc1ccccc1)NC(=O)[C@H](Cc1c[nH]c2ccccc12)NC(=O)[C@H](CC(=O)O)NC(=O)[C@H](Cc1ccccc1)NC(=O)[C@H](Cc1ccccc1)NC(=O)[C@H](CC(N)=O)NC(=O)[C@@H](N)Cc1c[nH]c2ccccc12)C(=O)N[C@@H](CO)C(=O)N[C@@H](Cc1c[nH]c2ccccc12)C(=O)N[C@@H](Cc1ccccc1)C(=O)NCC(=O)NCC(=O)N1CCC[C@H]1C(=O)N[C@@H](CC(C)C)C(=O)N[C@@H](CCCCN)C(=O)O` [RVFV-6, WNFFDWFSGLMSWFGGPLK], the “impact on cell proliferation (MTT assay)” value in data set [1] is recorded as “little negative impact on cell proliferation”.
In the case of FVGAAVSCDAAFLNLTGCY [RVFV-4], in data set [2], the “inhibition of RVFV-MP12 (plaque reduction), in words” value is “Only RVFV-5 demonstrated any inhibition”.
The same measure, in the same setting: under LGASSSRFTNWGSVSLSLD [RVFV-3] stands “Only RVFV-5 demonstrated any inhibition”.
In the case of SGSWNFFDWFSGLMSWFGGPL [RVFV-10], the “inhibition of EBOV (GFP signal)” value in data set [3] is on record as “strongly inhibit”.
As for WGCGCFNVNPSCLFVHTYL [RVFV-2], the “inhibition of RVFV-MP12 (plaque reduction), in words” value in data set [2] is listed as “Only RVFV-5 demonstrated any inhibition”.
The same measure, in the same setting: under YWTGSISPKCLSSRRCHLV [RVFV-1] stands “Only RVFV-5 demonstrated any inhibition”.
